Results from patent US7695728B2, “2-substituted pyridines, processes for their preparation and their use for controlling harmful fungi” (BASF Aktiengesellschaft, priority 2004, dated 2010).

SMILES	melting point [°C]
Fc1cccc(Cl)c1-c1c(NC2CCC(c3ccccc3)CC2)cc(-n2cccn2)nc1Cl (stereo not shown) [I-4]	170
Fc1cccc(Cl)c1-c1c(Cl)cc(-n2cccn2)nc1NC1CCC(c2ccccc2)CC1 (stereo not shown) [I-5]	78
CC(C)(C)C1CCC(Nc2nc(-n3cccn3)cc(Cl)c2-c2c(F)cccc2Cl)CC1 (stereo not shown) [I-9]	126
CC(C)Nc1cc(-n2cncn2)nc(Cl)c1-c1c(F)cccc1Cl [I-13, 2-Chloro-3-(2-chloro-6-fluorophenyl)-4-(2-propylamino)-6-([1,2,4]triazol-1-yl)pyridine]	152
CC(C)Nc1nc(-n2cncn2)cc(Cl)c1-c1c(F)cccc1Cl [I-14, 4-chloro-3-(2-chloro-6-fluorophenyl)-2-(2-propylamino)-6-([1,2,4]triazol-1-yl)pyridine]	152
CCC(C)Nc1cc(-n2cccn2)nc(Cl)c1-c1c(F)cccc1Cl (stereo not shown) [I-15]	108
CCC(C)Nc1nc(-n2cccn2)cc(Cl)c1-c1c(F)cccc1Cl (stereo not shown) [I-16]	114
CC1CCN(c2nc(-n3cccn3)cc(Cl)c2-c2c(F)cccc2Cl)CC1 [I-19]	120
Fc1cccc(Cl)c1-c1c(Cl)cc(-n2cccn2)nc1N1CCCC1 [I-20]	158
Fc1cccc(Cl)c1-c1c(N2CCCC2)cc(-n2cccn2)nc1Cl [I-21]	161
Fc1cccc(Cl)c1-c1c(NC2CC2)cc(-n2cccn2)nc1Cl [I-22]	164
Fc1cccc(Cl)c1-c1c(Cl)cc(-n2cccn2)nc1NC1CC1 [I-23]	103
Fc1cccc(Cl)c1-c1c(Cl)cc(-c2ccccn2)nc1NC1CCC(c2ccccc2)CC1 (stereo not shown) [I-24]	162
Fc1cccc(Cl)c1-c1c(NC2CCC(c3ccccc3)CC2)cc(-c2ccccn2)nc1Cl (stereo not shown) [I-25]	181
CC(C)(C)C1CCC(Nc2cc(-c3ccccn3)nc(Cl)c2-c2c(F)cccc2Cl)CC1 (stereo not shown) [I-27]	163
CC1CCN(c2cc(-c3ccccn3)nc(Cl)c2-c2c(F)cccc2Cl)CC1 [I-31]	119

SMILES	melting point [°C]
Fc1cccc(Cl)c1-c1c(NC2CCCCC2)cc(-c2ccccn2)nc1Cl [I-36]	83
CC(C)Nc1nc(-c2ccccn2)cc(Cl)c1-c1c(F)cccc1Cl [I-39]	67
Fc1cccc(Cl)c1-c1c(Cl)cc(-c2ccccn2)nc1N1CCCC1 [I-40]	155
Fc1cccc(Cl)c1-c1c(Cl)cc(-n2cccn2)nc1NC1CCCCC1 [I-43]	152
Fc1cccc(Cl)c1-c1c(NC2CCCCC2)cc(-n2cccn2)nc1Cl [I-44]	112
Cc1cccc(-c2cc(Cl)c(-c3c(F)cccc3Cl)c(NC(C)C)n2)n1 [I-45]	131
CC(C)Nc1cc(-c2nccs2)nc(Cl)c1-c1c(F)cccc1Cl [I-48]	78
Cc1nc(-c2cc(NC(C)C)c(-c3c(F)cccc3Cl)c(Cl)n2)sc1C [I-50]	183
CC(C)Nc1nc(-c2nc3ccccc3s2)cc(Cl)c1-c1c(F)cccc1Cl [I-51]	119
CC(C)Nc1cc(-c2nc3ccccc3s2)nc(Cl)c1-c1c(F)cccc1Cl [I-52]	154
CC1CCN(c2nc(-c3ncccn3)cc(Cl)c2-c2c(F)cccc2Cl)CC1 [I-53]	129
CC1CCN(c2cc(-c3ncccn3)nc(Cl)c2-c2c(F)cccc2Cl)CC1 [I-54]	129
COc1ccc(CCNc2cc(-c3ccccn3)nc(Cl)c2-c2c(F)cccc2Cl)cc1OC [I-56]	78
COc1ccc(CCNc2nc(-n3cccn3)cc(Cl)c2-c2c(F)cccc2Cl)cc1OC [I-57]	59
COc1ccc(CCNc2cc(-n3cccn3)nc(Cl)c2-c2c(F)cccc2Cl)cc1OC [I-58]	201
